# Test results from patent publication US20230373930A1, “AMINOIMIDAZOLE FPR2 AGONISTS” (BRISTOL-MYERS SQUIBB COMPANY, priority 2020, published 2023).
# pEC50: −log10 of the molar value.
# Assays:
# human FPR2 = target: T1, human FPR2 (Homo sapiens, UniProt P25090); test: FPR2 cyclic adenosine monophosphate (cAMP) assay; type: cell-based; conditions: CHO cells overexpressing human FPR2; forskolin 5 μM; inhibition of cAMP production; HTRF; read-out: hFPR2 cAMP2 EC50
# T1 sequence (P25090 1-351): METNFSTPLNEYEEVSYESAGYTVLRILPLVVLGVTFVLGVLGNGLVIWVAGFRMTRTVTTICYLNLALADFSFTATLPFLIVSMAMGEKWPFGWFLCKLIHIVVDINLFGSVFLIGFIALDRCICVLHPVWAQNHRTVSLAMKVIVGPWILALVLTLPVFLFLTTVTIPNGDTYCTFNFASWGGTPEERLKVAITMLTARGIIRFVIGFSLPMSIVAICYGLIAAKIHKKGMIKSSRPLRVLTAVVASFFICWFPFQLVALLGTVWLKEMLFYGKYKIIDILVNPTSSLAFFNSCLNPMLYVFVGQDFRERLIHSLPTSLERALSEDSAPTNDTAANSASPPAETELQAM
# Method: (§1) FPR2 and FPR1 Cyclic Adenosine Monophosphate (cAMP) Assays. A mixture of forskolin (5 μM final for FPR2 or 10 μM final for FPR1) and IBMX (200 μM final) were added to 384-well Proxiplates (Perkin-Elmer) pre-dotted with test compounds in DMSO (1% final) at final concentrations in the range of 0.020 nM to 100 μM. Chinese Hamster Ovary cells (CHO) overexpressing human FPR1 or human FPR2 receptors were cultured in F-12 (Ham's) medium supplemented with 10% qualified FBS, 250 μg/ml zeocin and 300 μg/ml hygromycin (Life Technologies). Reactions were initiated by adding 2,000 human FPR2 cells per well or 4,000 human FPR1 cells per well in Dulbecco's PBS (with calcium and magnesium) (Life Technologies) supplemented with 0.1% BSA (Perkin-Elmer). The reaction mixtures were incubated for 30 min at room temperature. The level of intracellular cAMP was determined using the HTRF HiRange cAMP assay reagent kit (Cisbio) according to manufacturer's instruction. Solutions of cryptate conjugated anti-cAMP and d2 flurorophore-labelled cAMP were made in a supplied lysis buffer separately. Upon completion of the reaction, the cells were lysed with equal volume of the d2-cAMP solution and anti-cAMP solution. After a 1-h room temperature incubation, time-resolved fluorescence intensity was measured using the Envision (Perkin-Elmer) at 400 nm excitation and dual emission at 590 nm and 665 nm. A calibration curve was constructed with an external cAMP standard at concentrations ranging from 1 μM to 0.1 μM by plotting the fluorescent intensity ratio from 665 nm emission to the intensity from the 590 nm emission against cAMP concentrations. The potency and activity of a compound to inhibit cAMP production was then determined by fitting to a 4-parametric logistic equation from a plot of cAMP level versus compound concentrations.
# human FPR1 = target: T2, human FPR1 (Homo sapiens, UniProt P21462); test: FPR1 cyclic adenosine monophosphate (cAMP) assay; type: cell-based; conditions: CHO cells overexpressing human FPR1; forskolin 10 μM; inhibition of cAMP production; HTRF; read-out: hFPR1 cAMP2 EC50
# T2 sequence (P21462 1-350): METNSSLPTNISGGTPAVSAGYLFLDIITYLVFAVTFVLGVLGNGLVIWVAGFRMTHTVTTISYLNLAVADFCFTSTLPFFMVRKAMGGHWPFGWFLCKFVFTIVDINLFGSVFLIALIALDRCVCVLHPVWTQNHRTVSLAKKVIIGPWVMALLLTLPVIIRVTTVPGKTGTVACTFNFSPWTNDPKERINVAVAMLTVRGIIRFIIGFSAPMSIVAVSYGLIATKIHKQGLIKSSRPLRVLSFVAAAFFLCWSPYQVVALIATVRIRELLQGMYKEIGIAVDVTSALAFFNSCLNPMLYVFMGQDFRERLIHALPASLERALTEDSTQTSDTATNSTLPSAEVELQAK
# Method: as §1
Compound,pEC50 (human FPR2),pEC50 (human FPR1)
"COc1cc(F)c(-n2cc(C(=O)NCc3cnc(C)cn3)nc2NC(=O)c2ccc(OC(F)F)cc2)c(F)c1 [Example 56, 1-(2,6-Difluoro-4-methoxyphenyl)-2-[4-(difluoromethoxy)benzamido]-N-[(5-methylpyrazin-2-yl)methyl]-1H-imidazole-4-carboxmaide]",7.05,6.96
"COc1cc(F)c(-n2cc(-c3ccc(F)c(F)c3)nc2NC(=O)c2ccc(OC(F)F)cc2)c(F)c1 [Example 36, N-[1-(2,6-Difluoro-4-methoxyphenyl)-4-(3,4-difluorophenyl)-1H-imidazol-2-yl]-4-(difluoromethoxy)benzamide]",7.51,6.49
"COc1ccc(-n2cc(-c3ccc(F)cc3F)nc2NC(=O)c2ccc(OC(F)F)cc2)cc1 [Example 21, 4-(Difluoromethoxy)-N-[4-(2,4-difluorophenyl)-1-(4-methoxyphenyl)-1H-imidazol-2-yl]benzamide]",7.54,7.12
"COc1ccc(-n2cc(-c3ccc4c(c3)CCO4)nc2NC(=O)c2ccc(OC(F)F)cc2)cc1 [Example 19, 4-(Difluoromethoxy)-N-[4-(2,3-dihydro-1-benzofuran-5-yl)-1-(4-methoxyphenyl)-1H-imidazol-2-yl]benzamide]",7.55,7.03
"COc1ccc(-c2cn(-c3c(F)cc(OC)cc3F)c(NC(=O)c3ccc(OC(F)F)cc3)n2)cc1 [Example 14, N-[1-(2,6-Difluoro-4-methoxyphenyl)-4-(4-methoxyphenyl)-1H-imidazol-2-yl]-4-(difluoromethoxy)benzamide]",7.41,6.80
"COc1cc(F)c(-n2cc(-c3ccc(C)cc3)nc2NC(=O)c2ccc(OC(F)F)cc2)c(F)c1 [Example 15, N-[1-(2,6-Difluoro-4-methoxyphenyl)-4-(4-methylphenyl)-1H-imidazol-2-yl]-4-(difluoromethoxy)benzamide]",7.64,6.89
"COc1ccc(-n2cc(-c3ccnc(Cl)c3)nc2NC(=O)c2ccc(OC(F)F)cc2)cc1 [Example 20, N-[4-(2-Chloropyridin-4-yl)-1-(4-methoxyphenyl)-1H-imidazol-2-yl]-4-(difluoromethoxy)benzamide]",8.30,7.72
"COc1ccc(-n2cc(C(C)(C)C)nc2NC(=O)c2ccc(OC(F)F)cc2)cc1 [Example 32, N-[4-Tert-butyl-1-(4-methoxyphenyl)-1H-imidazol-2-yl]-4-(difluoromethoxy)benzamide]",7.74,6.96
"COc1cc(F)c(-n2cc(-c3ccc(F)cc3)nc2NC(=O)c2ccc(OC(F)F)cc2)c(F)c1 [Example 4, N-[1-(2,6-Difluoro-4-methoxyphenyl)-4-(4-fluorophenyl)-1H-imidazol-2-yl]-4-(difluoromethoxy)benzamide]",7.96,6.40
"CCOC(=O)c1cc(-c2cn(-c3ccc(OC)cc3)c(NC(=O)c3ccc(OC(F)F)cc3)n2)on1 [Example 29, Ethyl 5-{2-[4-(difluoromethoxy)benzamido]-1-(4-methoxyphenyl)-1H-imidazol-4-yl}-1,2-oxazole-3-carboxylate]",7.82,7.49
"COc1cc(F)c(-n2cc(C(=O)NCc3ccncc3)nc2NC(=O)c2ccc(OC(F)F)cc2)c(F)c1 [Example 48, 1-(2,6-Difluoro-4-methoxyphenyl)-2-[4-(difluoromethoxy)benzamido]-N-[(pyridin-4-yl)methyl]-1H-imidazole-4-carboxamide]",6.96,6.22
"COc1cc(F)c(-n2cc(C(=O)Nc3cn[nH]c3)nc2NC(=O)c2ccc(OC(F)F)cc2)c(F)c1 [Example 62, 1-(2,6-Difluoro-4-methoxyphenyl)-2-[4-(difluoromethoxy)benzamido]-N-(1H-pyrazol-4-yl)-1H-imidazole-4-carboxamide]",7.49,6.08
"COc1cc(F)c(-n2cc(-c3cccc(F)c3)nc2NC(=O)c2ccc(OC(F)F)cc2)c(F)c1 [Example 10, N-[1-(2,6-Difluoro-4-methoxyphenyl)-4-(3-fluorophenyl)-1H-imidazol-2-yl]-4-(difluoromethoxy)benzamide]",8.15,6.70

# Second part, the compound after the results:
pEC50 (human FPR2),pEC50 (human FPR1),Compound
7.08,5.54,"COc1cc(F)c(-n2cc(C(=O)N3CCCC(O)C3)nc2NC(=O)c2ccc(OC(F)F)cc2)c(F)c1 (centres unmarked) [Example 51, N-[1-(2,6-Difluoro-4-methoxyphenyl)-4-(3-hydroxypiperidine-1-carbonyl)-1H-imidazol-2-yl]-4-(difluoromethoxy)benzamide]"
7.35,6.96,"COc1cc(F)c(-n2cc(C3CCN(C(=O)CCO)CC3)nc2NC(=O)c2ccc(OC(F)F)cc2)c(F)c1 [Example 68, N-[1-(2,6-difluoro-4-methoxyphenyl)-4-[1-(3-hydroxypropanoyl)piperidin-4-yl]-1H-imidazol-2-yl]-4-(difluoromethoxy)benzamide]"
7.51,6.01,"COc1cc(F)c(-n2cc(C(C)C)nc2NC(=O)c2ccc(OC(F)F)cc2)c(F)c1 [Example 70, N-(1-(2,6-Difluoro-4-methoxyphenyl)-4-isopropyl-1H-imidazol-2-yl)-4-(difluoromethoxy)benzamide]"
6.92,5.72,"COc1cc(F)c(-n2cc(C(=O)N3CC[C@H](O)C3)nc2NC(=O)c2ccc(OC(F)F)cc2)c(F)c1 [Example 57, N-[1-(2,6-Difluoro-4-methoxyphenyl)-4-[(3S)-3-hydroxypyrrolidine-1-carbonyl]-1H-imidazol-2-yl]-4-(difluoromethoxy)benzamide]"
7.09,6.49,"CCS(=O)(=O)N1CCC(c2cn(-c3c(F)cc(OC)cc3F)c(NC(=O)c3ccc(OC(F)F)cc3)n2)CC1 [Example 65, N-[1-(2,6-Difluoro-4-methoxyphenyl)-4-[1-(ethanesulfonyl)piperidin-4-yl]-1H-imidazol-2-yl]-4-(difluoromethoxy)benzamide]"
8.00,7.07,"COc1cc(F)c(-n2cc(C3CC(NCC(F)(F)F)C3)nc2NC(=O)c2ccc(OC(F)F)cc2)c(F)c1 (centres unmarked) [Example 82, N-(1-(2,6-Difluoro-4-methoxyphenyl)-4-(3-((2,2,2-trifluoroethyl)amino)cyclobutyl)-1H-imidazol-2-yl)-4-(difluoromethoxy)benzamide]"
6.49,< 5.00,"COc1cc(F)c(-n2cc(C(=O)N3CCOCC3)nc2NC(=O)c2ccc(OC(F)F)cc2)c(F)c1 [Example 54, N-[1-(2,6-Difluoro-4-methoxyphenyl)-4-(morpholine-4-carbonyl)-1H-imidazol-2-yl]-4-(difluoromethoxy)benzamide]"
7.27,7.08,"COc1cc(F)c(-n2cc(C3CCN(C(=O)CCC(N)=O)CC3)nc2NC(=O)c2ccc(OC(F)F)cc2)c(F)c1 [Example 67, N-{4-[1-(3-Carbamoylpropanoyl)piperidin-4-yl]-1-(2,6-difluoro-4-methoxyphenyl)-1H-imidazol-2-yl}-4-(difluoromethoxy)benzamide]"
8.30,6.40,"COc1cc(F)c(-n2cc(C3CC(NS(C)(=O)=O)C3)nc2NC(=O)c2ccc(OC(F)F)cc2)c(F)c1 (centres unmarked) [Example 83, N-[1-(2,6-difluoro-4-methoxyphenyl)-4-(3-methanesulfonamidocyclobutyl)-1H-imidazol-2-yl]-4-(difluoromethoxy)benzamide]"
